# Assay results from US20220323441A1, “THERAPEUTIC FOR GOUT OR HYPERURICEMIA” (Nippon Chemiphar Co., Ltd., priority 2019, published 2022).
# Where two headings read alike, the source gives them in different places.
# What was measured:
# serum uric acid level [1] = test: Example 1, action of lowering serum uric acid level in healthy adult males; type: in vivo
# Description: The effect of gradually lowering the blood uric acid level which is achieved by administering the pharmaceutical composition provided by the present invention may be confirmed, for example, when a maximum rate of decrease in a blood uric acid level on the first day of the administration ([(pre-administration uric acid level−minimum post-administration uric acid level on first day of administration)/pre-administration uric acid level]×100) is about 35% or less (for example, 1 to 35% decrease, 10 to 30% decrease, 10 to 25% decrease, 10 to 20% decrease, or 15 to 25% decrease); and/or the maximum rate of decrease in a blood uric acid level on the seventh day of the administration ([(pre-administration uric acid level−minimum post-administration uric acid level on the seventh day of administration)/pre-administration uric acid level]×100) is about 55% or less (for example, 1 to 55% decrease, 10 to 50% decrease, 15 to 45% decrease, 20 to 45% decrease, 20 to 40% decrease, or 20 to 35% decrease), the maximum rates of decrease being determined by continuously administering the pharmaceutical composition provided by the present invention to a healthy adult (for example, a male) for 7 days and measuring the blood uric acid levels before and after the administration.
# The blood uric acid level (blood uric acid concentration) may be measured by a known uricase-peroxidase method.
# 80 mg of Compound 14 was repeatedly administered to 6 healthy adult males once daily for 7 days using solid dispersion capsules of Formulation Example 1, and the action of lowering a serum uric acid level was examined. For comparative reference, the results are shown in FIG. 9 together with the result of a case described in Non Patent Literature 3 in which febuxostat (40 mg) was used.
# [2] = Particle size distribution of amorphous Compound 14 (laser diffraction); type: physicochemical; conditions: amorphous Compound 14, spray dried; dispersed in 0.2% Aerosol OT aqueous solution
# Protocol: A volume average particle size (D50) of the obtained amorphous Compound 14 was measured with a Shimadzu laser diffraction type particle size distribution measuring device SALD-2200 using a dispersion obtained by adding about 2 mg of a sample to a 0.2% Aerosol OT aqueous solution and irradiating the solution with ultrasonic waves for 30 seconds for dispersion. Shimadzu WingSALD-2200 version 1.02 software was used for data collection and analysis. […] The volume average particle size (D50) of amorphous Compound 14 obtained from the particle size distribution was 2.949 μm.
# serum uric acid level [3] = conditions: febuxostat 40 mg; about 15 hours after the administration; cited from earlier work
volume average particle size (D50) [2],SMILES,"course of serum uric acid level throughout the administration period (serum uric acid level [1]; 20 mg once daily for 7 days, solid dispersion capsules of Formulation Example 1)","course of serum uric acid level throughout the administration period (serum uric acid level [1]; 40 mg once daily for 7 days, capsules containing micronized Compound 14)","course of serum uric acid level throughout the administration period (serum uric acid level [1]; 80 mg once daily for 7 days, solid dispersion capsules of Formulation Example 1)","maximum rate of decrease in a blood uric acid level on the seventh day (serum uric acid level [1]; 80 mg once daily for 7 days, solid dispersion capsules of Formulation Example 1, about 8 hours after the administration)","maximum rate of decrease in a blood uric acid level on the first day of the administration (serum uric acid level [1]; 80 mg once daily, solid dispersion capsules of Formulation Example 1, 6 healthy adult males, at 12 hours after the administration)",maximum rate of decrease in a blood uric acid level on the first day of the administration (serum uric acid level [3])
2.949 μm,"N#Cc1cc(-c2nc3c(O)ncnc3s2)ccc1Oc1ccccc1 [Compound 14, 2-(3-Cyano-4-phenoxyphenyl)-7-hydroxythiazolo[5,4-d]pyrimidine]",gradually decreased over time,gradually decreased over time,gradually decreased over time,about 30%,about 17%,
,Cc1nc(-c2ccc(OCC(C)C)c(C#N)c2)sc1C(=O)O [febuxostat],,,,,,about 35%
